Laboratory results from patent US11472803B2, “7-substituted 1-aryl-naphthyridine-3-carboxylic acid amides and use thereof” (Bayer Aktiengesellschaft, priority 2016, dated 2022).

Molecular target: T1, human M2 receptor (Homo sapiens, UniProt P08172)
T1 construct: expressed in transfected cells; host or cells: CHO-DUKX (CHO-DUKX-M2-GIRK)
T1 sequence (P08172 1-466): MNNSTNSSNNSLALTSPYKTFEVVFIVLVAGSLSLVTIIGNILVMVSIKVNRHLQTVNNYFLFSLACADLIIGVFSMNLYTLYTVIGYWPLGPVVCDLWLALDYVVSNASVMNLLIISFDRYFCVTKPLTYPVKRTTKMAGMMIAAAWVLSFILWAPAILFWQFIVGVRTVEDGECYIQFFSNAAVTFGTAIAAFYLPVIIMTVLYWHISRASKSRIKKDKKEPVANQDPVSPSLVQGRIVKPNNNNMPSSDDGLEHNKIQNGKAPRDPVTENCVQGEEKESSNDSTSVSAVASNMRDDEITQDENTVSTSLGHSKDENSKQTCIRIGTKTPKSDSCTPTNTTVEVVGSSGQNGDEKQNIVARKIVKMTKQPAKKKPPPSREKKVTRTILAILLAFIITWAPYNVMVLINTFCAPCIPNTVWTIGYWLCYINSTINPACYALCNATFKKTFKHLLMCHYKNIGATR
Experiment: Functional M2-GIRK1/4 activation test: allosteric potency (EC50) and efficiency at EC20 acetylcholine
Assay type: cell-based
Conditions: CHO-DUKX-M2-GIRK cells; for EC50: voltage-sensitive dye, acetylcholine at EC20, in some cases mean of two or more determinations; for Emax / Efficiency: boosting of the acetylcholine effect at EC20 acetylcholine concentration
Excerpt: The binding of orthosteric agonists (endogenous ligand: acetylcholine) to the M2 receptor leads to receptor activation or a change in conformation of the receptor in the manner of a shift in equilibrium in favour of the active receptor conformation.
The agonist-induced change in conformation of the M2 receptor results in a Gαi protein activation. […] Under physiological conditions, the result is then a selective efflux of potassium from the cell along the electrochemical gradient. […] The extent of hyperpolarization can therefore be regarded as a measure of the activation of the M2 receptor.
The test cell used is a recombinant CHO-DUKX cell line which has been stably transfected with cDNA coding for the human M2 receptor and with cDNA coding for both GIRK1/4 subunits (CHO-DUKX-M2-GIRK). The transmembrane potential, or the relative changes in the transmembrane potential as a function of substance addition or M2 activation, is determined by means of a voltage-sensitive dye (FLIPR Membrane Potential Assay Kit Blue, Molecular Devices #R8034) and the measurement of cell fluorescence using a proprietary fluorescence imaging instrument.
The sowing medium consisted of MEM alpha medium (supplemented with 5% PCS, 2% Glutamax, no genticin).
For the particular measurement, the medium was removed and the cells were laden with the volt-age-sensitive dye for at least 6 min at room temperature (30 μl of loading buffer per 384-well). This was followed, in a first measurement, by the determination of the fluorescence for the resting transmembrane potential for a period of 5 sec. Thereafter, 10 μl in each case of the test substances diluted in loading buffer were added, followed by a second measurement to determine the transmembrane potential for a period of 50 sec in 1 sec increments. Finally, the cells were admixed with 10 μl of agonist solution (acetylcholine dissolved in loading buffer). Acetylcholine was used at the concentration corresponding to the EC20, which had been determined in a preliminary test. The M2-mediated GIRK1/4 activation or hyperpolarization was then monitored in a third measurement over a period of 60 sec. The EC50 value (degree of allosteric potency of test compound) and the efficiency (measure of the boosting of the acetylcholine effect at an EC20 acetylcholine concentration) were determined with the aid of a 4-parameter logistic function (Hill function).

SMILES | EC50 [nM] | Emax [%] | Efficiency [%]
CCC(NC(=O)c1cn(-c2c(F)cc(F)cc2F)c2nc(N3C[C@@H](O)[C@H](O)C3)c(F)cc2c1=O)C(C)C (single isomer, unassigned) [Example 29] | 2.5 | 100 | 
CCC(NC(=O)c1cn(-c2c(F)cc(F)cc2F)c2nc(N3C[C@@H](O)[C@H](O)C3)c(F)cc2c1=O)C(C)C (single isomer, unassigned) [Example 30] | 2.6 |  | 100
CC(NC(=O)c1cn(-c2ncc(F)cc2F)c2nc(N3CC(O)C(O)C3)c(F)cc2c1=O)C(F)(F)C(F)(F)F (single isomer, unassigned) [Example 46] | 51 |  | 100
CC[C@H](NC(=O)c1cn(-c2c(F)cc(F)cc2Cl)c2nc(N3C[C@@H](O)[C@H](O)C3)c(F)cc2c1=O)C(F)(F)F (single isomer, unassigned) [Example 47] | 48 | 81 | 
CC(C)(NC(=O)c1cn(-c2c(F)cc(F)cc2Cl)c2nc(N3C[C@@H](O)[C@H](O)C3)c(F)cc2c1=O)C(F)(F)F (single isomer, unassigned) [Example 49] | 68 | 74 | 
CC(C)(NC(=O)c1cn(-c2c(F)cc(F)cc2Cl)c2nc(N3C[C@@H](O)[C@H](O)C3)c(F)cc2c1=O)C(F)(F)F (single isomer, unassigned) [Example 50] | 2.5 |  | 60
O=C(N[C@@H](C1CC1)C(F)(F)F)c1cn(-c2c(F)cc(F)cc2Cl)c2nc(N3C[C@@H](O)[C@H](O)C3)c(F)cc2c1=O (single isomer, unassigned) [Example 51] | 36 | 81 | 
O=C(N[C@@H](C1CC1)C(F)(F)F)c1cn(-c2c(F)cc(F)cc2Cl)c2nc(N3C[C@@H](O)[C@H](O)C3)c(F)cc2c1=O (single isomer, unassigned) [Example 52] | 1.3 |  | 83
CCN(CC(C)O)c1nc2c(cc1F)c(=O)c(C(=O)N[C@@H](C1CC1)C(F)(F)F)cn2-c1c(F)cc(F)cc1F (single isomer, unassigned) [Example 66] | 35 | 92 | 
CCN(CC(C)O)c1nc2c(cc1F)c(=O)c(C(=O)N[C@@H](C1CC1)C(F)(F)F)cn2-c1c(F)cc(F)cc1F (single isomer, unassigned) [Example 67] | 10 |  | 95
O=C(N[C@@H](C1CC1)C(F)(F)F)c1cn(-c2c(F)cc(F)cc2Cl)c2nc(N3CC(CO)(CO)C3)c(F)cc2c1=O (single isomer, unassigned) [Example 70] | 100 | 86 | 
CCC(COC(F)(F)F)NC(=O)c1cn(-c2c(F)cc(F)cc2F)c2nc(N3C[C@@H](O)[C@@H](O)C3)c(F)cc2c1=O (single isomer, unassigned) [Example 96] | 16 | 96 | 

The next lines start with the values.

EC50 [nM] | Emax [%] | Efficiency [%] | SMILES
4 | 86 |  | CC(NC(=O)c1cn(-c2c(F)cc(F)cc2F)c2nc(N3CC(CO)(CO)C3)c(F)cc2c1=O)C(F)(F)C(F)(F)F (racemic) [Example 168, 7-[3,3-Bis(hydroxymethyl)azetidin-1-yl]-6-fluoro-4-oxo-N-[3,3,4,4,4-pentafluorobutan-2-yl]-1-(2,4,6-trifluorophenyl)-1,4-dihydro-1,8-naphthyridine-3-carboxamide]
1.3 | 95 |  | CCC(NC(=O)c1cn(-c2c(F)cc(F)cc2F)c2nc(N3CC(CO)(CO)C3)c(F)cc2c1=O)C(F)(F)C(F)(F)F (racemic) [Example 171, 7-[3,3-Bis(hydroxymethyl)azetidin-1-yl]-6-fluoro-4-oxo-N-[1,1,1,2,2-pentafluoropentan-3-yl]-1-(2,4,6-trifluorophenyl)-1,4-dihydro-1,8-naphthyridine-3-carboxamide]
2.3 | 100 |  | CC(C)C(COC(F)(F)F)NC(=O)c1cn(-c2c(F)cc(F)cc2F)c2nc(N3C[C@@H](O)[C@H](O)C3)c(F)cc2c1=O (mixture of isomers) [Example 233, 7-[(3R,4R)-3,4-dihydroxypyrrolidin-1-yl]-6-fluoro-N-[3-methyl-1-(trifluoromethoxy)butan-2-yl]-4-oxo-1-(2,4,6-trifluorophenyl)-1,4-dihydro-1,8-naphthyridine-3-carboxamide]
13 |  | 97 | CCC(COC(F)(F)F)NC(=O)c1cn(-c2c(F)cc(F)cc2F)c2nc(N3C[C@@H](O)[C@@H](O)C3)c(F)cc2c1=O (single isomer, unassigned) [Example 97]
19 | 100 |  | CCC(COC(F)(F)F)NC(=O)c1cn(-c2c(F)cc(F)cc2F)c2nc(N3CC[C@H](O)C3)c(F)cc2c1=O (single isomer, unassigned) [Example 110]
7.2 |  | 99 | CCC(COC(F)(F)F)NC(=O)c1cn(-c2c(F)cc(F)cc2F)c2nc(N3CC[C@H](O)C3)c(F)cc2c1=O (single isomer, unassigned) [Example 111]
7 |  | 94 | CC(NC(=O)c1cn(-c2c(F)cc(F)cc2F)c2nc(N3CC[C@H](O)C3)c(F)cc2c1=O)C(F)(F)C(F)(F)F (single isomer, unassigned) [Example 114]
6.9 | 99 |  | CCC(NC(=O)c1cn(-c2c(F)cc(F)cc2F)c2nc(N3CC[C@H](O)C3)c(F)cc2c1=O)C(C)C (single isomer, unassigned) [Example 117]
2.8 |  | 100 | CCC(NC(=O)c1cn(-c2c(F)cc(F)cc2F)c2nc(N3CC[C@H](O)C3)c(F)cc2c1=O)C(C)C (single isomer, unassigned) [Example 118]
9.8 | 90 |  | CC(NC(=O)c1cn(-c2ncc(F)cc2F)c2nc(N3CC[C@H](O)C3)c(F)cc2c1=O)C(F)(F)C(F)(F)F (single isomer, unassigned) [Example 128]
66 |  | 95 | CC(NC(=O)c1cn(-c2ncc(F)cc2F)c2nc(N3CC[C@H](O)C3)c(F)cc2c1=O)C(F)(F)C(F)(F)F (single isomer, unassigned) [Example 129]
3.3 | 91 |  | CC(C)C(NC(=O)c1cn(-c2c(F)cc(F)cc2F)c2nc(N3C[C@@H](O)[C@@H](O)C3)c(F)cc2c1=O)C(F)(F)F (single isomer, unassigned) [Example 137]
7.6 |  | 84 | CC(C)C(NC(=O)c1cn(-c2c(F)cc(F)cc2F)c2nc(N3C[C@@H](O)[C@@H](O)C3)c(F)cc2c1=O)C(F)(F)F (single isomer, unassigned) [Example 138]
3.4 | 100 |  | CC(C)C(NC(=O)c1cn(-c2c(F)cc(F)cc2F)c2nc(N3CC[C@H](O)C3)c(F)cc2c1=O)C(F)(F)F (single isomer, unassigned) [Example 139]
5.3 |  | 95 | CC(C)C(NC(=O)c1cn(-c2c(F)cc(F)cc2F)c2nc(N3CC[C@H](O)C3)c(F)cc2c1=O)C(F)(F)F (single isomer, unassigned) [Example 140]
39 | 99 |  | CC(C)(NC(=O)c1cn(-c2c(F)cc(F)cc2Cl)c2nc(N3C[C@@H](O)[C@H](O)C3)c(F)cc2c1=O)C(F)F (single isomer, unassigned) [Example 142]
